Measurements from patent US9512459B2 (priority 2011, dated 2016).
Like-named read-outs stand apart in the source and are kept apart here.

Columns and labels:
[1] = target: Sclerotinia sclerotiorum glucose dehydrogenase (FAD-GDH) Ssc-n1 variant N191E, SEQ ID NO: 1 (Sclerotinia sclerotiorum, UniProt A7F9L2, N191E); conditions: 60 ml culture, crude enzyme; glucose 1-40 mM, pH 6.5, DCIP/PMS
Experimental: (§1) The transformant BL21 (DE3) expressing each mutated enzyme was precultured. The transformant was inoculated in an amount of 1% with respect to 60 ml of a medium A using a 300-ml baffled flask and shake-cultured under conditions involving 20° C., 28 hours, and 125 rpm. After collection of 50 ml of the medium, the bacterial cells were suspended by the addition of BugBuster (registered trademark) protein extraction reagent (Novagen/Merck KGaA) at a ratio of 5 ml per g of wet cells and incubated at room temperature for 15 minutes with gentle shaking. Insoluble fractions were removed by centrifugation (15 Krpm, 4° C., 20 minutes). Then, the obtained supernatant was dialyzed overnight at 4° C. against a 20 mM potassium phosphate buffer solution (pH 6.5). After the completion of the dialysis, the dialysate was centrifuged, and the supernatant was used as a crude enzyme preparation. Insoluble fractions were suspended in a 20 mM potassium phosphate buffer solution (pH 6.5) at a ratio of 1 ml per 2 ml of the suspension containing the insoluble fractions.
(§2) The GDH activity was measured in a DCIP (0.3 mM)/PMS (0.6 mM) system using a 20 mM potassium phosphate buffer solution (pH 6.5) as a buffer solution and glucose (Glc; 1, 2, 4, 10, 20, and 40 mM) and xylose (Xyl; 4 and 40 mM) as substrates.
(§3) The numeric values in the tables represent a mean of several data about specific activity (U/mg) and productivity (U/L) obtained under the same conditions with 40 mM glucose as a substrate. The obtained crude enzyme preparation was used to observe the correlation between the concentration of the substrate (glucose; 1, 2, 4, 10, 20, and 40 mM) and the activity. The obtained Michaelis-Menten constant (Km value) and apparent maximum activity (Vmax) were determined from a saturation curve determined therefrom.

[2] = target: Sclerotinia sclerotiorum glucose dehydrogenase (FAD-GDH) Ssc-n1 variant N191K, SEQ ID NO: 1 (Sclerotinia sclerotiorum, UniProt A7F9L2, N191K); conditions: 60 ml culture, crude enzyme; glucose 1-40 mM, pH 6.5, DCIP/PMS
Experimental: as §1, §2, §3

[3] = target: Sclerotinia sclerotiorum glucose dehydrogenase (FAD-GDH) Ssc-n1 variant N191K/S529G, SEQ ID NO: 1 (Sclerotinia sclerotiorum, UniProt A7F9L2, N191K/S529G); conditions: 60 ml culture, crude enzyme; glucose 1-40 mM, pH 6.5, DCIP/PMS
Experimental: as §1, §2, §3

[4] = target: Sclerotinia sclerotiorum glucose dehydrogenase (FAD-GDH) Ssc-n1 variant N191R, SEQ ID NO: 1 (Sclerotinia sclerotiorum, UniProt A7F9L2, N191R); conditions: 60 ml culture, crude enzyme; glucose 1-40 mM, pH 6.5, DCIP/PMS
Experimental: as §1, §2, §3

[5] = target: Sclerotinia sclerotiorum glucose dehydrogenase (FAD-GDH) Ssc-n1 variant N191S, SEQ ID NO: 1 (Sclerotinia sclerotiorum, UniProt A7F9L2, N191S); conditions: 60 ml culture, crude enzyme; glucose 1-40 mM, pH 6.5, DCIP/PMS
Experimental: as §1, §2, §3

[6] = target: Sclerotinia sclerotiorum glucose dehydrogenase (FAD-GDH) Ssc-n1 variant S529G, SEQ ID NO: 1 (Sclerotinia sclerotiorum, UniProt A7F9L2, S529G); conditions: 60 ml culture, crude enzyme; glucose 1-40 mM, pH 6.5, DCIP/PMS
Experimental: as §1, §2, §3

[7] = target: Sclerotinia sclerotiorum glucose dehydrogenase (FAD-GDH) Ssc-n2 variant N191E/S529G, SEQ ID NO: 1 (Sclerotinia sclerotiorum, UniProt A7F9L2, N191E/S529G); conditions: 60 ml culture, crude enzyme; glucose 1-40 mM, pH 6.5, DCIP/PMS
Experimental: as §1, §2, §3

[8] = target: Sclerotinia sclerotiorum glucose dehydrogenase (FAD-GDH) Ssc-n2 variant N191R/S529G, SEQ ID NO: 1 (Sclerotinia sclerotiorum, UniProt A7F9L2, N191R/S529G); conditions: 60 ml culture, crude enzyme; glucose 1-40 mM, pH 6.5, DCIP/PMS
Experimental: as §1, §2, §3

[9] = target: Sclerotinia sclerotiorum glucose dehydrogenase (FAD-GDH) Ssc-n2 variant N191S/S529G, SEQ ID NO: 1 (Sclerotinia sclerotiorum, UniProt A7F9L2, N191S/S529G); conditions: 60 ml culture, crude enzyme; glucose 1-40 mM, pH 6.5, DCIP/PMS
Experimental: as §1, §2, §3

[10] = target: Sclerotinia sclerotiorum glucose dehydrogenase (FAD-GDH) Ssc-n3 variant N191K/S529G, SEQ ID NO: 1 (Sclerotinia sclerotiorum, UniProt A7F9L2, N191K/S529G); conditions: 60 ml culture, crude enzyme; glucose 1-40 mM, pH 6.5, DCIP/PMS
Experimental: as §1, §2, §3

[11] = target: Sclerotinia sclerotiorum glucose dehydrogenase (FAD-GDH) Ssc-n4 variant N191K/S529G, SEQ ID NO: 1 (Sclerotinia sclerotiorum, UniProt A7F9L2, N191K/S529G); conditions: 60 ml culture, crude enzyme; glucose 1-40 mM, pH 6.5, DCIP/PMS
Experimental: as §1, §2, §3

[12] = target: Sclerotinia sclerotiorum glucose dehydrogenase (FAD-GDH) Ssc-n2 variant N191K/S529G, SEQ ID NO: 1 (Sclerotinia sclerotiorum, UniProt A7F9L2, N191K/S529G); conditions: crude enzyme, glucose 1-40 mM, pH 6.5, DCIP/PMS
Experimental: as §1
(§4) A small-scale expression system was used for some multiple-mutated enzymes. The transformant BL21 (DE3) expressing each mutated enzyme was precultured, and the transformant was inoculated in an amount of 1 vol % with respect to 3 ml of a medium A. The bacterial cells were shake-cultured at 37° C. for 4 hours and then shake-cultured at 20° C. for 20 hours. After the culture, 2 ml of the medium was collected, then suspended by the addition of 400 μl of BugBuster (registered trademark), and then shaken at room temperature for 15 minutes. Then, the suspension was centrifuged (15000 rpm, 4° C., 20 minutes), and the obtained supernatant was used as a crude enzyme preparation.
as §2, §3

[13] = target: Sclerotinia sclerotiorum glucose dehydrogenase (FAD-GDH) Ssc-n2 variant N191K/S529G/G69A, SEQ ID NO: 1 (Sclerotinia sclerotiorum, UniProt A7F9L2, G69A/N191K/S529G); conditions: crude enzyme, glucose 1-40 mM, pH 6.5, DCIP/PMS
Experimental: as §1, §4, §2, §3

[14] = target: Sclerotinia sclerotiorum glucose dehydrogenase (FAD-GDH) Ssc-n2 variant N191K/S529G/Y70F, SEQ ID NO: 1 (Sclerotinia sclerotiorum, UniProt A7F9L2, N191K/S529G/Y70F); conditions: crude enzyme, glucose 1-40 mM, pH 6.5, DCIP/PMS
Experimental: as §1, §4, §2, §3

OC[C@H]1OC(O)[C@H](O)[C@@H](O)[C@@H]1O (some centres unmarked) [glucose]
Vmax [1]: 5.6 U/mg protein | Vmax [2]: 1.6 U/mg protein | Vmax [3]: 7.2 U/mg protein | Vmax [4]: 5.6 U/mg protein | Vmax [5]: 3.7 U/mg protein | Vmax [6]: 3.6 U/mg protein | Vmax [7]: 20.2 U/mg protein | Vmax [8]: 15.7 U/mg protein | Vmax [9]: 19.4 U/mg protein | Vmax [10]: 6.9 U/mg protein | Vmax [11]: 9.2 U/mg protein | Vmax ([12]; 3 ml culture): 16.9 U/mg protein | Vmax ([12]; 60 ml culture): 38.2 U/mg protein | Vmax ([13]; 3 ml culture): 15.8 U/mg protein | Vmax ([13]; 60 ml culture): 26.4 U/mg protein | Vmax ([14]; 3 ml culture): 9.0 U/mg protein | Vmax ([14]; 60 ml culture): 23.8 U/mg protein
